Laboratory results as given in US20080221103A1, “New heterocyclic compounds” (ORCHID RESEARCH LABORATORIES LTD., priority 2007, published 2008).

Tests used:
[1] = system: TNF-α; test: In vitro measurement of TNF-α production in LPS-stimulated human PBMC (ELISA); type: cell-based; conditions: LPS 1 μg/ml, 18 h; for inhibition at 1 µM: read-out: TNF-α Inhibition (%) at Conc. (1 μM); for inhibition at 10 µM: read-out: TNF-α Inhibition (%) at Conc. (10 μM)
Description: This assay determines the effect of test compounds on the production of TNF-α in human Peripheral Blood Mononuclear Cells (PBMC). Compounds were tested for their ability to inhibit the activity of TNF-α in human PBMC. PBMC were isolated from blood (of healthy volunteers) using BD Vacutainer CPT™ (Cell preparation tube, BD Bio Science) and suspended in RPMI medium (Physiol. Res. 52: 593-598, 2003). The test compounds were pre-incubated with PBMC (0.5 million/incubation well) for 15 min. at 37° C. and then stimulated with Lipopolysaccharide (Escherichia coli: B4; 1 μg/ml) for 18 h at 37° C. in 5% CO2. The levels of TNF-α in the cell culture medium were estimated using enzyme-linked immunosorbent assay performed in a 96 well format as per the procedure of the manufacturer (Cayman Chemical, Ann Arbor, USA).

[2] = system: HCT116 cells; test: Anti-cancer screen (MTT), HCT116; type: cell-based; conditions: Homo sapiens, HCT-116, 48 h, concentrations tested 0.01-100 μM
Description: (§1) Experimental drugs are screened for anti-cancer activity in three cell lines for their GI50, TGI and LC50 values (using 5 concentrations for each compound). The cell lines are maintained in DMEM containing 10% fetal bovine serum. 96 well microtiter plates are inoculated with cells in 100 μL for 24 hours at 37° C., 5% CO2, 95% air and 100% relative humidity. 5000 HCT116 cells/well, 5000 NCIH460 cells/well, 10000 U251 cells/well and 5000 MDAMB231 cells/well are plated. A separate plate with these cell lines is also inoculated to determine cell viability before the addition of the compounds (T0).
(§2) Following 24-h incubation, experimental drugs are added to the 96 well plates. […]
(§3) Cells are incubated with compounds for 48 h followed by the addition of 10 μL 3-(4,5-Dimethyl-2-thiazolyl)-2,5-diphenyl-2H-tetrazolium (MTT) solution per well and a subsequent incubation at 37° C., 5% CO2, 95% air and 100% relative humidity, protected from light. […] Plates are agitated to ensure solution of the formazan crystals in DMSO and absorbance read at 570 nm.
(§4) Percent growth is calculated for each compound's concentration relative to the control and zero measurement wells (T0; viability right before compound addition). […]

[3] = system: NCIH460 cells; test: Anti-cancer screen (MTT), NCIH460; type: cell-based; conditions: Homo sapiens, NCI-H460, 48 h, concentrations tested 0.01-100 μM
Description: as §1, §2, §3, §4

[4] = system: NCIH460, HCT116, U251; test: Anti-cancer screen (MTT), mean over three cell lines; type: cell-based; conditions: mean of NCIH460, HCT116, U251
Description: as §1, §2, §3, §4

[5] = system: U251 cells; test: Anti-cancer screen (MTT), U251; type: cell-based; conditions: Homo sapiens, U-251, 48 h, concentrations tested 0.01-100 μM
Description: as §1, §2, §3, §4

[6] = biological target: T1, Thromboxane synthase (Homo sapiens, UniProt P24557); test: Thromboxane synthase activity; type: biochemical; conditions: source human platelets, TxB2 EIA
T1 construct: Source: Human Platelets; from tissue; host or cells: Human platelets
T1 sequence (P24557 1-533): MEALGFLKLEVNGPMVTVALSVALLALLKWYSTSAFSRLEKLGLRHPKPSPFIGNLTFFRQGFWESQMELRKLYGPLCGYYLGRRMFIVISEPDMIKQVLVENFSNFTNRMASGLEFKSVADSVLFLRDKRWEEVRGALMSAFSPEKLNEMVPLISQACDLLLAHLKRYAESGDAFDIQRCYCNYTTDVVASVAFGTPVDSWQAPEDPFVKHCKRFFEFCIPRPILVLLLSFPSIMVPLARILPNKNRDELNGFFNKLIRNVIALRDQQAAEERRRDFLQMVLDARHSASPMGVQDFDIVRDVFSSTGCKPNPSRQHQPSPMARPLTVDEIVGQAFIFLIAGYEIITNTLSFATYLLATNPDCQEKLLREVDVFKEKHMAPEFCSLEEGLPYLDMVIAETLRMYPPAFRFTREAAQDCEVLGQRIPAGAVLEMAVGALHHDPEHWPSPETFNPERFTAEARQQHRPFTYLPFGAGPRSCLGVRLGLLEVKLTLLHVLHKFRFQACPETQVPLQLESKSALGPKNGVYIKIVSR
Description: The assay method involves the following conditions.
Pre-incubation Time/Temp.: 15 min at 25° C.
Incubation Time/Temp.: 3 min at 25° C.
Incubation buffer: 10 mM Tris-HCl, pH 7.4 Quantitation method: EIA quantitation of TxB2 Significance criteria: >50% of maximum stimulation or inhibition The results are tabulated as shown in the table VI.

[7] = system: TNF-α; test: LPS induced sepsis for measurement of TNF-α inhibition in mice; type: in vivo; conditions: Mus musculus, 1.5 h; oral dosing; serum TNF-α 90 min after LPS i.p.
Description: The LPS induced sepsis model in mice was performed as described by Les sekut et al (J Lab Clin Med, 1994, 124, 813-820). Female Swiss albino mice were selected and the body weights were equivalent within each group. The mice were fasted for 20 h with free access to water. The mice were dosed orally with the test compound suspended in vehicle containing 0.5% Tween 80 in 0.25% Carboxy-methylcellulose sodium salt. The control mice were administered the vehicle alone. After 30 minutes of oral dosing, mice were injected with 500 μg of Lipopolysaccharide (Escherichia coli, LPS: B4 from Siga) in phosphate buffer saline solution into the intraperitoneal cavity of the mice. After 90 min of LPS administration mice were bled via retro-orbital sinus puncture. Blood samples were stored overnight at 4° C. Serum samples were collected by centrifuging the samples at 4000 rpm for 15 minutes at 4° C. Immediately the serum samples were analysed for TNF-α levels using commercially available mouse TNF-α ELISA kit (Amersham Biosciences) and assay was performed by the manufacturer instruction.

[8] = system: DSS Induced colitis; test: IBD-DSS model (DSS induced colitis test); type: in vivo; conditions: dosed Day 1 to 6, BALB/c mice, DSS 2%
Description: DSS Induced colitis test was performed as described by Axelsson et al., 1998. Male BALB/c mice were selected in the age of 7-8 weeks for the study. Colitis in mice was induced by providing DSS (2%) in the drinking water from day 1 to 6. Mice were dosed from Day 1 to 6 with test compound suspended in vehicle containing 0.25% carboxymethylcellulose and 0.5% Tween 80. The control animals received vehicle alone. Body weight and disease activity index was recorded daily during the experiment. After 6 days of treatment, animals were sacrificed; colon weight and colon length was recorded.

[9] = biological target: T2, 5-LOX (Homo sapiens, UniProt P09917); test: 5-LOX activity; type: biochemical; conditions: source human PBML cells, LTB4 EIA
T2 construct: Source: Human PBML cells Substrate: Arachidonic acid; endogenous in cells; host or cells: Human PBML cells (peripheral blood mononuclear leukocytes)
T2 sequence (P09917 1-674): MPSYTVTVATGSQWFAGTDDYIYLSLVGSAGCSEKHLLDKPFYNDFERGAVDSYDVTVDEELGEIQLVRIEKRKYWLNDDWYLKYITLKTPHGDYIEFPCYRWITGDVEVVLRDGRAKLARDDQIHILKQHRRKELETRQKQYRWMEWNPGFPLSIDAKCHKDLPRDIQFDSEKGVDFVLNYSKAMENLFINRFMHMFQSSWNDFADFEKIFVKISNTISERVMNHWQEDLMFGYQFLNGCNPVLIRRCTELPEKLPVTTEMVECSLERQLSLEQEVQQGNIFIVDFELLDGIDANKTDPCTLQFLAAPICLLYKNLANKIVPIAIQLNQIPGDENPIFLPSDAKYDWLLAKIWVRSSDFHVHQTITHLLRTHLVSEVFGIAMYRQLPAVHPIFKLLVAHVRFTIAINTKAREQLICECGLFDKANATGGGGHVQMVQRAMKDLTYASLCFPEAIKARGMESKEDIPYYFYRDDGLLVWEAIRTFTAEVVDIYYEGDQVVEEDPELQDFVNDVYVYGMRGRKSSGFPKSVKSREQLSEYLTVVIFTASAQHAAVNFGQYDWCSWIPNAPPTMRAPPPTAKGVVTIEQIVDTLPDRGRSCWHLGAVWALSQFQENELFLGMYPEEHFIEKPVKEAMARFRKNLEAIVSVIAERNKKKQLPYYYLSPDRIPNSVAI
Description: The assay method involves the following conditions. Source: Human PBML cells Substrate: Arachidonic acid
Pre-incubation Time/Temp.: 15 min at 37° C.
Incubation Time/Temp.: 15 min at 37° C.
Incubation buffer: HBSS (Hank's balanced salt solution) Quantitation method: EIA quantitation of LTB4 Significance criteria: >50% of maximum stimulation or inhibition The results are tabulated as shown in the table V.

[10] = system: PDE4; test: PDE4 activity; type: biochemical; conditions: source human U937 cells
Description: PDE4 inhibition was measured by following a literature assay procedure (Cortizo J et al., J. Pharmacol., 1993, 108, 562-568). The assay method involves the following conditions.
Pre-Incubation Time/Temperature: 15 min at 25° C.
Incubation Time/Temperature. 20 min at 25° C.
Incubation buffer: 50 mM Tris-HCl, pH 7.5, 5 mM MgCl2 Quantitation method: Quantitation of [^3H]

| Structure (SMILES) | inhibition at 1 µM [1] | inhibition at 10 µM [1] | also measured |
| --- | --- | --- | --- |
| CSc1nc(-c2cccs2)nc(NN)c1C#N [Example 13, 4-Hydrazinyl-6-(methylthio)-2-(thiophen-2-yl)pyrimidine-5-carbonitrile] | 13% | 71% | – |
| COc1ccc(-c2nc(NN3C(=O)C=C(C)C3=O)c(C#N)c(SC)n2)cc1 [Example 2, 4-(Thiomethyl)-2-(4-methoxyphenyl)-6-(3-methyl-2,5-dioxo-2,5-dihydro-1H-pyrrol-1-ylamino)pyrimidine-5-carbonitrile] | 50.9% | 95.4% | – |
| COc1ccc(-c2nc(NN3C(=O)C=C(C)C3=O)c(C#N)c(SC)n2)cc1S(N)(=O)=O [Example 6, 5-(5-Cyano-4-(3-methyl-2,5-dioxo-2,5-dihydro-1H-pyrrol-1-ylamino)-6-(methylthio)pyrimidin-2-yl)-2-methoxybenzenesulfonamide] | – | 88% | GI50 [2]: 4.9 µM; GI50 [3]: 10.1 µM; GI50 [4]: 5.3 µM; GI50 [5]: 0.92 µM |
| CSc1nc(-c2cccc(S(N)(=O)=O)c2)nc(NN2C(=O)C=C(C)C2=O)c1C#N [Example 10, 3-(5-Cyano-4-(3-methyl-2,5-dioxo-2,5-dihydro-1H-pyrrol-1-ylamino)-6-(methylthio)pyrimidin-2-yl)benzenesulfonamide] | 20% | 9.7% | – |
| CSc1nc(-c2ccccc2)nc(NN2C(=O)C=C(C)C2=O)c1C#N [Example 1, 4-(3-Methyl-2,5-dioxo-2,5-dihydro-1H-pyrrol-1-ylamino)-6-(methylthio)-2-phenylpyrimidine-5-carbonitrile] | 57.3% | 92.7% | inhibition at 10 µM [6]: 96%; ED50 [7]: 3.1 mg/kg; IBD-DSS Model % Inhibition of DAI at 50 mg/kg [8]: 47%; inhibition at 10 µM [9]: 94%; PDE4 inhibition at 10 μM (%) [10]: 61% |
| COc1ccc(-c2nc(SC)c(C#N)c(N3CCN(c4ccccn4)CC3)n2)cc1 [Example 39, 2-(4-Methoxyphenyl)-4-(methylthio)-6-(4-(pyridin-2-yl)piperazin-1-yl)pyrimidine-5-carbonitrile] | 19.2% | 34% | – |
